Measured values taken from PMC9841531, “Indole Derivatives as New Structural Class of Potent and Antiproliferative Inhibitors of Monocarboxylate Transporter 1 (MCT1; SLC16A1)” (Journal of Medicinal Chemistry, 2022).

What was measured:
[1] = system: A-549 cancer cells; test: MTT-based cell viability assay, A-549; settings: Homo sapiens, A549, 72 h, read-out: A-549 cancer cell toxicity GI50 ± SEM
Excerpt: (§1) MCT1-expressing cells have an extraordinary energy demand and rely on pyruvate metabolism, through either lactate conversion or pyruvate consumption. Inhibition of MCT1 blocks lactate and pyruvate influx into cancer cells, which prevents their processing in the TCA cycle. Over time, the viability of cells exposed to an MCT1 inhibitor is impaired due to pyruvate deprivation, which is compensated by upregulating glucose metabolism—leading to an overconsumption of glucose. To confirm the antiproliferative nature of the indole derivatives, we investigated the compounds toward the MCT1-expressing cell lines A-549[14],[15] and MCF-7.[16] Cancer cell viability was assessed via a 3-(4,5-dimethylthiazol-2-yl)-2,5-diphenyltetrazolium bromide (MTT) assay, as reported earlier.[43]
(§2) To determine the growth inhibitory potential of compounds 17–32, […] of each compound either at concentrations between 1 and 100 μM (A-549 or MCF-7) or at 10 and 50 μM (NIH/3T3) was pipetted into colorless flat-bottom 96-well microplates. Thereafter, 180 μL of a cell suspension (5000 cells/well) of either A-549, MCF-7, or NIH/3T3 cells was added and subsequently kept for 72 h at 37 °C under a 5% CO2-humidified atmosphere. The cell viability as well as the GI50 values were determined as described above.[43]

[2] = target: T1, MCT1 (Homo sapiens, UniProt P53985); test: functional 3-BP cell viability assay (MCT1 transport inhibition); format: cell-based; settings: MCT1-expressing A-549 cells, 50 μM 3-BP, 72 h; read-out: MCT1 transport inhibition IC50 ± SEM
T1 construct: MCT1-expressing A-549 cells[14],[15] were exposed to the MCT1 substrate 3-BP, which becomes influxed by MCT1; endogenous in cells; host or cells: A-549 lung cancer cells (from NCCS, Pune)
T1 sequence (P53985 1-500): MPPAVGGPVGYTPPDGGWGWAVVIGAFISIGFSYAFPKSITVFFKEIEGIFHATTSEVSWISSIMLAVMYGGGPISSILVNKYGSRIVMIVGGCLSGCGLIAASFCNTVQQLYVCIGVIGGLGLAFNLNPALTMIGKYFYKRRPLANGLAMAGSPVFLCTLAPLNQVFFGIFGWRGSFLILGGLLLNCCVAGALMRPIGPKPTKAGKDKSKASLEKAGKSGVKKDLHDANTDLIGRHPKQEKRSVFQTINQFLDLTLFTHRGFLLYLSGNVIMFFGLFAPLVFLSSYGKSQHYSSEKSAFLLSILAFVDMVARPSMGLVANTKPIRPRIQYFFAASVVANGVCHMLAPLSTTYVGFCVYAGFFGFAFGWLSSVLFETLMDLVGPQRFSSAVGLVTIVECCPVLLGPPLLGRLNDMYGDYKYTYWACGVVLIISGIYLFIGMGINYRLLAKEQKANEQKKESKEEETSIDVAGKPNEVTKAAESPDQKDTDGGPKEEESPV
T1 sequence (P35613 140-385 partner limits assumed): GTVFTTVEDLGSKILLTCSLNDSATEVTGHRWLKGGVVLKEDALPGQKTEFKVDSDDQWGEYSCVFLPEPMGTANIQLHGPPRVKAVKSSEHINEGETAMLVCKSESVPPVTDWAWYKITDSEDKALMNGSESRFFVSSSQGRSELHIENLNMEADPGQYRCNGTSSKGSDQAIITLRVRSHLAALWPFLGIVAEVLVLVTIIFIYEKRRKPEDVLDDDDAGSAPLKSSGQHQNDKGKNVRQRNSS
Protocol: The inhibitory activity of indole derivatives against MCT1 was determined by applying a functional 3-bromopyruvate (3-BP) cell viability assay, as described in the literature[20],[39] with minor modifications. In short, MCT1-expressing A-549 cells[14],[15] were exposed to the MCT1 substrate 3-BP, which becomes influxed by MCT1. 3-BP is toxic, leading to decreased cell viability. Functional inhibition of MCT1 results in reduced intracellular 3-BP levels and, thus, enhanced cell viability compared to no inhibition. […] Table 1 provides the half-maximal inhibition concentration (IC50) values of compounds 17–32.
A functional 3-BP cytotoxicity assay was conducted as described in the literature[20],[39] with minor modifications. Dilution series of compounds 17–32 between 1 nM and 1 μM were prepared in DPBS (Cell Clone, Genetix Biotech Asia, New Delhi India), and 10 μL of each concentration was pipetted into a colorless flat-bottom 96-well microplate (SPL Life Sciences, Gyeonggi-do, Republic of Korea). One hundred and eighty microliters of a cell suspension (5000 cells/well) of A-549 cells was added, and subsequently, 10 μL of 3-BP was added at a concentration of 1 mM (final concentration per well: 50 μM). The plate was kept for 72 h at 37 °C under a 5% CO2-humidified atmosphere. Cell viability was determined as described before[43] by adding 20 μL of a 5 mg/mL solution of MTT to each well and further incubation for 1 h. Eventually, the supernatant was removed and 100 μL of DMSO was added to each well. The absorbance was spectrophotometrically determined at 570 nm using a SpectraMax iD3 multi-mode microplate reader (Molecular Devices, San Jose, CA) with a background correction (690 nm). The determined absorbance values were correlated to the logarithmic concentrations of compounds 17–32, and IC50 values were calculated applying nonlinear regression using GraphPad Prism (version 8.4.0., San Diego, CA).

[3] = system: MCF-7 cancer cells; test: MTT-based cell viability assay, MCF-7; settings: Homo sapiens, MCF7, 72 h, read-out: MCF-7 cancer cell toxicity GI50 ± SEM
Excerpt: as §1, §2

[4] = target: T1, MCT1; settings: cited from earlier work
[5] = target: T2, ABCG2 (BCRP) (Homo sapiens, UniProt Q9UNQ0); test: pheophorbide A assay, ABCG2-expressing MDCK II BCRP cells; settings: human, ABCG2-expressing MDCK II BCRP cells, probe pheophorbide A (0.5 μM final)
T2 sequence (Q9UNQ0 1-655): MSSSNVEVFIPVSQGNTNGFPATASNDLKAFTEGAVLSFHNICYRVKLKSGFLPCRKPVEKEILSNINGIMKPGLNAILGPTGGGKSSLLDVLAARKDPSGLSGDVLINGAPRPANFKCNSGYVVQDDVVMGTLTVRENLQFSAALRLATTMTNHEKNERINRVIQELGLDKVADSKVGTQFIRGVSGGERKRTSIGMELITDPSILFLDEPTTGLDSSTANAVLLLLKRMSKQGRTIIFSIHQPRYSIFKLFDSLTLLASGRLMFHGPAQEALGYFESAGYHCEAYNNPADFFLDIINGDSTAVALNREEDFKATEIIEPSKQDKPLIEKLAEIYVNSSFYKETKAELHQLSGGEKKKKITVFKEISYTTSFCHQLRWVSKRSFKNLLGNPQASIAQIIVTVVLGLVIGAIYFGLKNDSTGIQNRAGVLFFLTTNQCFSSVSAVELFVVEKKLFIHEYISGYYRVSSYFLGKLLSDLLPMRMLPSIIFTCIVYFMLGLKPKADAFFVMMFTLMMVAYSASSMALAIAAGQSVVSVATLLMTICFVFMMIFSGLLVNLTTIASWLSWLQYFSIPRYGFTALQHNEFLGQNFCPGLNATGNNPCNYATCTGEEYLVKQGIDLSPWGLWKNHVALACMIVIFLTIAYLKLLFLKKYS
Excerpt: (§3) To provide a detailed picture of the pharmacological profile of the indole derivatives, we investigated their modulatory nature on the most prominent ABC transporters ABCB1 (P-glycoprotein, P-gp), ABCC1, (multidrug resistance-associated protein 1, MRP1), and ABCG2 (breast cancer resistance protein, BCRP). Here, we conducted calcein AM (ABCB1),[2],[52]−[59] daunorubicin (ABCC1),[52],[58]−[60] and pheophorbide A (ABCG2)[2],[52]−[60] assays using ABCB1-expressing A2780/ADR, ABCC1-expressing H69AR, and ABCG2-expressing MDCK II BCRP cells, respectively.
(§4) The calcein AM (ABCB1),[2],[52]−[59] daunorubicin (ABCB1[52],[60] and ABCC1[52],[58]−[60]), and pheophorbide A (ABCG2)[2],[52]−[60] assays were conducted as reported earlier. […] The data was processed using GraphPad Prism version 8.4.0, and IC50 values were determined, applying three- or four-parameter logistic equations, whatever was statistically preferred.

[6] = target: T3, ABCG2 (Homo sapiens, UniProt Q9UNQ0); test: as above; settings: for ABCG2 inhibition: screening at 10 μM, inhibitor if 20% (+SEM) reached
T3 sequence (Q9UNQ0 1-655): T2 sequence (Q9UNQ0 1-655)
Excerpt: as §3, §4

[7] = target: T4, ABCB1 (Homo sapiens, UniProt P08183); test: calcein AM assay, ABCB1-expressing A2780/ADR cells; settings: for IC50: read-out: ABCB1 calcein AM IC50 ± SEM, A2780/ADR cells, 22, 23 constrained to reference inhibitor 34; for ABCB1 inhibition: screening at 10 μM, inhibitor if 20% (+SEM) reached
T4 sequence (P08183 whole entry): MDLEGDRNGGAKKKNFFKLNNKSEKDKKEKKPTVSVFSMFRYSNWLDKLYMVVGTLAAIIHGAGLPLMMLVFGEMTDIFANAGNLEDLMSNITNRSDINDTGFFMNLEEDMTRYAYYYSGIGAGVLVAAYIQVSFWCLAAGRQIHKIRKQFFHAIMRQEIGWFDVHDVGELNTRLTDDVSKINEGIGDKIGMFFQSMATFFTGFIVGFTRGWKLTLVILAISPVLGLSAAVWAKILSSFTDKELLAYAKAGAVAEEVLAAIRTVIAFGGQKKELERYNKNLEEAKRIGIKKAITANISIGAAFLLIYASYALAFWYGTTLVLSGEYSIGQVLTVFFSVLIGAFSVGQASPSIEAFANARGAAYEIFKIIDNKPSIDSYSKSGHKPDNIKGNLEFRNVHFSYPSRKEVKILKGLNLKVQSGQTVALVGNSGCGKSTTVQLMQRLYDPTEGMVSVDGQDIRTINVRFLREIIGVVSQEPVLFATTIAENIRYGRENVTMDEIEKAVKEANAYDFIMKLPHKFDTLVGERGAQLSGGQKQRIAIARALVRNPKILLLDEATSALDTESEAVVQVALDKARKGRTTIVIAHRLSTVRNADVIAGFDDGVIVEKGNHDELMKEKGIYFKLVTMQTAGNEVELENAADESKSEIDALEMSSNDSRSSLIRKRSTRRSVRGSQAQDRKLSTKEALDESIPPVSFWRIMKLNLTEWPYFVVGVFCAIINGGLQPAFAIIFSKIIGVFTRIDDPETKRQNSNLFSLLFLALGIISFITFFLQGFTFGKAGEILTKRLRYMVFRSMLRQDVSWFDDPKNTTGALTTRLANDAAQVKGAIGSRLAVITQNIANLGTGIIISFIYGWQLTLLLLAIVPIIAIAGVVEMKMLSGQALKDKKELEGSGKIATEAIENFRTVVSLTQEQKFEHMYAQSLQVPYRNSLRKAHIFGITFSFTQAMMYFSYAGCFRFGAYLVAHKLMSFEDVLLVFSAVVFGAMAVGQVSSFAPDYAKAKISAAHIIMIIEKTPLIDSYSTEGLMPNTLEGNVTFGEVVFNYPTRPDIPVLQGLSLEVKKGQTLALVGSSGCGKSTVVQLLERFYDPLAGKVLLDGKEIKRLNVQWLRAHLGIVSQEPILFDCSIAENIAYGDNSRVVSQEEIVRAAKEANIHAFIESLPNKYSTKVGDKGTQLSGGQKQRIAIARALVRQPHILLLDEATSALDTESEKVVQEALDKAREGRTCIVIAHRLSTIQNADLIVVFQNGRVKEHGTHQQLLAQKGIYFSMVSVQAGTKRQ
Excerpt: as §3, §4

[8] = target: ABCC1 (Homo sapiens, UniProt P33527); test: daunorubicin assay, ABCC1-expressing H69AR cells; settings: for inhibition at 10 µM: H69AR, read-out: inhibition of ABCC1 in screening; for IC50: read-out: ABCC1 daunorubicin IC50 ± SEM, H69AR cells, 22, 23 constrained to reference inhibitor 35; for ABCC1 inhibition: screening at 10 μM, inhibitor if 20% (+SEM) reached
Sequence of ABCC1 (P33527 whole entry): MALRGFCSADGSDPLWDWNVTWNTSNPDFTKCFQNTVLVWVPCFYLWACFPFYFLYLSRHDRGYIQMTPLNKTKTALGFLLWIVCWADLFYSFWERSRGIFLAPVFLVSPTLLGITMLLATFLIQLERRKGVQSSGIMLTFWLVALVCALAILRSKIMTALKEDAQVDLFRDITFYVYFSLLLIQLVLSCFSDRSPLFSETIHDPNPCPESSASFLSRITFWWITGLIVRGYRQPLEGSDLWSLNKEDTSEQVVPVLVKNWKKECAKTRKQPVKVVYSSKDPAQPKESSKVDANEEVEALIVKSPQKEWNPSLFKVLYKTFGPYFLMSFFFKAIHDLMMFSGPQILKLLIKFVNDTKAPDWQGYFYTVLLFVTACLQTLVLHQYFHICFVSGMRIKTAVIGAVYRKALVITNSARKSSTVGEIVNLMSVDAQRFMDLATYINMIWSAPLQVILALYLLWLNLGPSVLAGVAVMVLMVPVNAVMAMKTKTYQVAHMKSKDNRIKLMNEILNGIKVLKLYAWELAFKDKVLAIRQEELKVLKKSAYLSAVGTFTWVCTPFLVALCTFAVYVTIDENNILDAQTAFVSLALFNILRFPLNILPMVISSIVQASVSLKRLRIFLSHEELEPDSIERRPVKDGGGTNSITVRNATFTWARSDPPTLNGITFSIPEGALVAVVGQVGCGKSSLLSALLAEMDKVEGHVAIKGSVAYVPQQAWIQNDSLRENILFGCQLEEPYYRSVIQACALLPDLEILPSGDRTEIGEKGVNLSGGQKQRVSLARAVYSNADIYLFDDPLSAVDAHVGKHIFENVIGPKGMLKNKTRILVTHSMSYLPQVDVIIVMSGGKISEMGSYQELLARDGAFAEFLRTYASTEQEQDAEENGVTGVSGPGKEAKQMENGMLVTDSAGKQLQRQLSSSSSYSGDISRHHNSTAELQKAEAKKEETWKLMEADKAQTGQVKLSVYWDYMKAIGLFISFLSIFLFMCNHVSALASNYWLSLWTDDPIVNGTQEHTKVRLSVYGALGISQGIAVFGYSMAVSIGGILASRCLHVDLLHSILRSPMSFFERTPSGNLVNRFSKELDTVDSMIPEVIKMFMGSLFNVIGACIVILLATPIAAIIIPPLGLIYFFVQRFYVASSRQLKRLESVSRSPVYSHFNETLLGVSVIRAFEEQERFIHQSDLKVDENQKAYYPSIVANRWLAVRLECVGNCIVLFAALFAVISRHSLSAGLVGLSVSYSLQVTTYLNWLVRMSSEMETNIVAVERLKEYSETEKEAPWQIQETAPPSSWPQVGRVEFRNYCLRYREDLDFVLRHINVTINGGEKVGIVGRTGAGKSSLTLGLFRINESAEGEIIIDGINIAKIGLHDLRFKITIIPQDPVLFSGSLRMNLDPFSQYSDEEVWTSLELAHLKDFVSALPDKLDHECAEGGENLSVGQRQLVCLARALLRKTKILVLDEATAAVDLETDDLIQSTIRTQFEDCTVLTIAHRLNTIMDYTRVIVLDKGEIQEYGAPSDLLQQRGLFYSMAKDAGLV
Excerpt: as §3, §4

[9] = target: T4, ABCB1; test: daunorubicin assay, ABCB1-expressing A2780/ADR cells; format: cell-based; settings: A2780/ADR cells; read-out: ABCB1 daunorubicin IC50 ± SEM
[10] = target: ABCB1 (P-glycoprotein, P-gp) (Homo sapiens, UniProt P08183); test: as above; format: cell-based; settings: human, ABCB1-expressing A2780/ADR cells, probe daunorubicin (3 μM final); relative to reference inhibitor 34 = 100%; read-out: maximal inhibition (Imax), ABCB1 daunorubicin
Sequence of ABCB1 (P-glycoprotein, P-gp) (P08183 whole entry): as the sequence (P08183 whole entry) above

Row | Structure (SMILES) | GI50 [1] | IC50 [2] | GI50 [3] | inhibitory power (MCT1) in the literature [4] | inhibition at 120 min, 10 μM [5] | IC50 [6] | ABCG2 inhibition [6] | IC50 [7] | ABCB1 inhibition [7] | inhibition at 10 µM [8] | IC50 [8] | ABCC1 inhibition [8] | IC50 [9] | inhibition at 180 min [10]
1 | N#C/C(=C\c1ccc(O)cc1)C(=O)O [Compound 8, reference compound] | 52.7 ± 0.2 µM | 0.0872 ± 0.0035 µM | 108 ± 3 µM | submillimolar to low micromolar concentration ranges | – | – | – | – | – | – | – | – | – | –
2 | COC(=O)/C(C#N)=C/c1cn(CC(=O)Nc2ccccc2OC)c2ccccc12 [Compound 22, Methyl-2-cyano-3-(1-(2-((2-methoxyphenyl)amino)-2-oxoethyl)-1H-indol-3-yl) Acrylate] | 26 ± 0.3 µM | 0.135 ± 0.002 µM | 19.1 ± 0.5 µM | – | ≥ 20% | 99.5 ± 24.5 µM | X (Compounds were considered as inhibitors if they reached 20% (+SEM) inhibition compared to the reference inhibitors 33–35; X = fulfilled) | 24.3 ± 6.4 µM | X (Compounds were considered as inhibitors if they reached 20% (+SEM) inhibition compared to the reference inhibitors 33–35; X = fulfilled) | ≥ 20% | 17.3 ± 2.2 µM | X (Compounds were considered as inhibitors if they reached 20% (+SEM) inhibition compared to the reference inhibitors 33–35; X = fulfilled) | – | –
3 | COC(=O)/C(C#N)=C/c1cn(CC(=O)Nc2cccc(OC)c2)c2ccccc12 [Compound 23, Methyl-2-cyano-3-(1-(2-((3-methoxyphenyl)amino)-2-oxoethyl)-1H-indol-3-yl) Acrylate] | 25.5 ± 0.5 µM | 0.105 ± 0.009 µM | 14.7 ± 0.2 µM | – | ≥ 20% | 43.5 ± 7.5 µM | X (Compounds were considered as inhibitors if they reached 20% (+SEM) inhibition compared to the reference inhibitors 33–35; X = fulfilled) | 5.32 ± 1.67 µM | X (Compounds were considered as inhibitors if they reached 20% (+SEM) inhibition compared to the reference inhibitors 33–35; X = fulfilled) | ≥ 20% | 19.1 ± 3.4 µM | X (Compounds were considered as inhibitors if they reached 20% (+SEM) inhibition compared to the reference inhibitors 33–35; X = fulfilled) | – | –
4 | COC(=O)/C(C#N)=C/c1cn(CC(=O)Nc2ccc(Br)cn2)c2ccccc12 [Compound 31, Methyl-3-(1-(2-((5-bromopyridin-2-yl)amino)-2-oxoethyl)-1H-indol-3-yl)-2-cyanoacrylate] | 18.8 ± 0.2 µM | 0.214 ± 0.032 µM | 3.13 ± 0.23 µM | – | – | – | – | 1.4 ± 0.11 µM | X (Compounds were considered as inhibitors if they reached 20% (+SEM) inhibition compared to the reference inhibitors 33–35; X = fulfilled) | – | – | X (Compounds were considered as inhibitors if they reached 20% (+SEM) inhibition compared to the reference inhibitors 33–35; X = fulfilled) | 1.19 ± 0.12 µM | 39%
